Data from US6673793B2, “Oxazinoquinolones useful for the treatment of viral infections” (Pharmacia & Upjohn Co., priority 2000, dated 2004).

Experiments:
CMV polymerase = target: T1, CMV polymerase (Human cytomegalovirus, UniProt P08546); experiment: HCMV polymerase assay, scintillation proximity assay (SPA), modified version; assay type: biochemical; settings: modified HCMV polymerase SPA assay: compounds diluted in 100% DMSO, 4.5 mM DTT in polymerase buffer, different lot of CMV polymerase; read-out: CMV polymerase IC50
T1 construct: made in house; host or cells: recombinant baculovirus-infected SF-9 cells
Protocol: The HCMV polymerase assay is performed using a scintillation proximity assay (SPA) as described in several references, such as N. D. Cook, et al., Pharmaceutical Manufacturing International, pages 49-53 (1992); K. Takeuchi, Laboratory Practice, September issue (1992); U.S. Pat. No. 4,568,649 (1986); which are incorporated by reference herein. Reactions are performed in 96-well plates. The assay is conducted in 100 μl volume with 5.4 mM HEPES (pH 7.5), 11.7 mM KCl, 4.5 mM MgCl2, 0.36 mg/ml BSA, and 90 nM ^3H-dTTP. Assays are run with and without CHAPS, (3-[(3-Cholamidopropyl)-dimethylammonio]-1-propane-sulfonate) at a final concentration of 2 mM. HCMV polymerase is diluted in enzyme dilution buffer containing 50% glycerol, 250 mM NaCl, 10 mM HEPES (pH 7.5), 100 μg/ml BSA, and 0.01% sodium azide. The HCMV polymerase, which is expressed in recombinant baculovirus-infected SF-9 cells and purified according to literature procedures, is added at 10% (or 10 μl) of the final reaction volume, i.e., 100 μl. Compounds are diluted in 50% DMSO and 10 μl are added to each well. Control wells contain an equivalent concentration of DMSO. Unless noted otherwise, reactions are initiated via the addition of 6 nM biotinylated poly(dA)-oligo(dT) template/primer to reaction mixtures containing the enzyme, substrate, and compounds of interest. Plates are incubated in a 25 C. or 37 C. H2O bath and terminated via the addition of 40 μl/reaction of 0.5 M EDTA (pH 8) per well. Reactions are terminated within the time-frame during which substrate incorporation is linear and varied depending upon the enzyme and conditions used, i.e., 30 min. for HCMV polymerase. Ten μl of streptavidin-SPA beads (20 mg/ml in PBS/10% glycerol) are added following termination of the reaction. Plates are incubated 10 min. at 37 C., then equilibrated to room temperature, and counted on a Packard Topcount. Linear regressions are performed and IC50's are calculated using computer software.
A modified version of the above HCMV polymerase assay is performed as described above, but with the following changes: Compounds are diluted in 100% DMSO until final dilution into assay buffer. In the previous assay, compounds are diluted in 50% DMSO. 4.5 mM dithiotherotol (DTT) is added to the polymerase buffer.

T1 sequence (P08546 whole entry): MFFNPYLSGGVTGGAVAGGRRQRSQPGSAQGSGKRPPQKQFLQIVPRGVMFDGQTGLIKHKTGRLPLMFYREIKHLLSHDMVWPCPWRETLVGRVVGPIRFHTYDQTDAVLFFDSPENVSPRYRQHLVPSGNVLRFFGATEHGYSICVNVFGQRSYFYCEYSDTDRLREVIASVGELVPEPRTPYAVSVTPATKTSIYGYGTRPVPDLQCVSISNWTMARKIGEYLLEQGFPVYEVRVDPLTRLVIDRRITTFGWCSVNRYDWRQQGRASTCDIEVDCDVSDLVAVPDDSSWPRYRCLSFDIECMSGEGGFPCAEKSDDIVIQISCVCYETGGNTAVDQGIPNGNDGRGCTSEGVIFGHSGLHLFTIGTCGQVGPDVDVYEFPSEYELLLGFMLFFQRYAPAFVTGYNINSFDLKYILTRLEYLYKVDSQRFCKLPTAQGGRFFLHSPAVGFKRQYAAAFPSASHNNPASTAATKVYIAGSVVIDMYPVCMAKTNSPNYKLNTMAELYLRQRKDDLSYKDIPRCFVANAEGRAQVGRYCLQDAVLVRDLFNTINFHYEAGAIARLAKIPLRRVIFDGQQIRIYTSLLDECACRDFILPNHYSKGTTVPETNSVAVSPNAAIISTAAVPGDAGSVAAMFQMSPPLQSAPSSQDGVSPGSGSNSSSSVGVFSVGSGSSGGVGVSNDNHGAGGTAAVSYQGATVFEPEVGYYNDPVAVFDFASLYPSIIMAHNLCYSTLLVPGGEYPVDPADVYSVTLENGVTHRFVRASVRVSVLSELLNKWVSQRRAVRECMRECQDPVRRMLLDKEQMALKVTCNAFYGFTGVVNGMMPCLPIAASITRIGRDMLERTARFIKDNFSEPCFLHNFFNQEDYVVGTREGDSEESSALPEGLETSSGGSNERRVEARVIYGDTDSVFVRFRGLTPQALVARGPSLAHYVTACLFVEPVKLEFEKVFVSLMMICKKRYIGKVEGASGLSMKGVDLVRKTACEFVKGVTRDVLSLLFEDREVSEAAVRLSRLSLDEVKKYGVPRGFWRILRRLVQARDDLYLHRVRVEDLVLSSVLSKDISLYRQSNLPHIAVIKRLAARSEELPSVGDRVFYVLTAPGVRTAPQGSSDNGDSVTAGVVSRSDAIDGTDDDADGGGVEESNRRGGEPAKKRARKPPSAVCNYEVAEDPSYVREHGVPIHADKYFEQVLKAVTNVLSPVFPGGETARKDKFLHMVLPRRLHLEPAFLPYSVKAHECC

`O=C(NCc1ccc(Cl)cc1)c1cn2c3c(cc(CN4CCOCC4)cc3c1=O)OC(c1ccc3c(c1)OCCO3)C2` (stereo not drawn) [Example 41, N-(4-Chlorobenzyl)-2-(2,3-dihydro-1,4-benzodioxin-6-yl)-9-(morpholin-4-ylmethyl)-7-oxo-2,3-dihydro-7H-[1,4]oxazino[2,3,4-ij]quinoline-6-carboxamide] showed an IC50 (CMV polymerase) of 440 nM and a melting point of 240 to 243 °C.
In the case of `O=C(NCc1ccc(Cl)cc1)c1cn2c3c(cc(CN4CCOCC4)cc3c1=O)OC(c1cccc3c1OCO3)C2` (stereo not drawn) [Example 42, 2-(1,3-Benzodioxol-4-yl)-N-(4-chlorobenzyl)-9-(morpholin-4-ylmethyl)-7-oxo-2,3-dihydro-7H-[1,4]oxazino[2,3,4-ij]quinoline-6-carboxamide], the IC50 (CMV polymerase) is reported as 200 nM and the melting point is reported as 221 to 225 °C (dec.).
Compound `COCOc1cc(OCOC)cc(C2Cn3cc(C(=O)NCc4ccc(Cl)cc4)c(=O)c4cc(CN5CCOCC5)cc(c43)O2)c1` (stereo not drawn) [Example 43, 2-[3,5-bis(Methoxymethoxy)phenyl]-N-(4-chlorobenzyl)-9-(morpholin-4-ylmethyl)-7-oxo-2,3-dihydro-7H-[1,4]oxazino[2,3,4-ij]quinoline-6-carboxamide] has an IC50 (CMV polymerase) of 400 nM and a melting point of 187 to 189 °C.
In the case of `COCOc1cccc(C2Cn3cc(C(=O)NCc4ccc(Cl)cc4)c(=O)c4cc(CN5CCOCC5)cc(c43)O2)c1OCOC` (stereo not drawn) [Example 44, 2-[2,3-bis(Methoxymethoxy)phenyl]-N-(4-chlorobenzyl)-9-(morpholin-4-ylmethyl)-7-oxo-2,3-dihydro-7H-[1,4]oxazino[2,3,4-ij]quinoline-6-carboxamide], the IC50 (CMV polymerase) is reported as 1040 nM and the melting point is reported as 177 to 180 °C.
For `O=C(NCc1ccc(Cl)cc1)c1cn2c3c(cc(CN4CCOCC4)cc3c1=O)OC(c1ccsc1)C2` (stereo not drawn) [Example 45, N-(4-Chlorobenzyl)-9-(morpholin-4-ylmethyl)-7-oxo-2-thien-3-yl-2,3-dihydro-7H-[1,4]oxazino[2,3,4-ij]quinoline-6-carboxamide], the IC50 (CMV polymerase) was 410 nM and the melting point was 241 to 245 °C (dec.).
With `O=C(NCc1ccc(Cl)cc1)c1cn2c3c(cc(CN4CCOCC4)cc3c1=O)OC1(CCOCC1)C2` [Example 46, N-[(4-Chlorophenyl)methyl]-2,3,5,6-tetrahydro-9′-(4-morpholinylmethyl)-7′-oxospiro[4H-pyran-4,2′(3′H)-[7H]pyrido[1,2,3-de][1,4]benzoxazine]-6′-carboxamide] the IC50 (CMV polymerase) was 530 nM and the melting point was 251 to 254 °C.
In the case of `CC(C)(C)OC(=O)N1CCC2(CC1)Cn1cc(C(=O)NCc3ccc(Cl)cc3)c(=O)c3cc(CN4CCOCC4)cc(c31)O2` [Example 47, 1,1-Dimethylethyl 6-[[[(4-chlorophenyl)methyl]amino]carbonyl]-9′-(4-morpholinylmethyl)-7′-oxospiro[piperidine-4,2′(3′H)-[7H]pyrido[1,2,3-de][1,4]benzoxazine]-1-carboxylate], the IC50 (CMV polymerase) is reported as 830 nM and the melting point is reported as 213 °C (dec.).
In the case of `O=C(NCc1ccc(Cl)cc1)c1cn2c3c(cc(CN4CCOCC4)cc3c1=O)OC1(CCNCC1)C2` [Example 48, N-[(4-Chlorophenyl)methyl]-9′-(4-morpholinylmethyl)-7′-oxospiro[piperidine-4,2′(3′H)-[7H]pyrido[1,2,3-de][1,4]benzoxazine]-6′-carboxamide], the IC50 (CMV polymerase) is reported as 2150 nM and the melting point is reported as 246 to 250 °C (dec.).
With `CN1CCC2(CC1)Cn1cc(C(=O)NCc3ccc(Cl)cc3)c(=O)c3cc(CN4CCOCC4)cc(c31)O2` [Example 49, N-[(4-Chlorophenyl)methyl]-1-methyl-9′-(4-morpholinylmethyl)-7′-oxospiro[piperidine-4,2′(3′H)-[7H]pyrido[1,2,3-de][1,4]benzoxazine]-6′-carboxamide] the IC50 (CMV polymerase) was 2330 nM and the melting point was 234 to 237 °C (dec.).
`O=C(NCc1ccc(Cl)cc1)c1cn2c3c(cc(CN4CCOCC4)cc3c1=O)OC1(CCC3(CC1)OCCO3)C2` [Example 50] gave an IC50 (CMV polymerase) of 1170 nM and a melting point of over 260 °C.
For `COCOCC1(COCOC)Cn2cc(C(=O)NCc3ccc(Cl)cc3)c(=O)c3cc(CN4CCOCC4)cc(c32)O1` [Example 51, N-(4-Chlorobenzyl)-2,2-bis[(methoxymethoxy)methyl]-9-(morpholin-4-ylmethyl)-7-oxo-2,3-dihydro-7H-[1,4]oxazino[2,3,4-ij]quinoline-6-carboxamide], the IC50 (CMV polymerase) was 750 nM and the melting point was 147 to 149 °C.
For `O=C(NCc1ccc(Cl)cc1)c1cn2c3c(cc(CN4CCOCC4)cc3c1=O)OC(CO)(CO)C2` [Example 52, N-(4-Chlorobenzyl)-2,2-bis(hydroxymethyl)-9-(morpholin-4-ylmethyl)-7-oxo-2,3-dihydro-7H-[1,4]oxazino[2,3,4-ij]quinoline-6-carboxamide], the IC50 (CMV polymerase) was 810 nM and the melting point was 230 to 233 °C.
`O=C(NCc1ccc(Cl)cc1)c1cn2c3c(cc(CN4CCOCC4)cc3c1=O)OC1(CCSCC1)C2` [Example 53, N-[(4-Chlorophenyl)methyl]-2′,3′,5′,6′-tetrahydro-9-(4-morpholinylmethyl)-7-oxospiro[7H-pyrido[1,2,3-de]-1,4-benzoxazine-2(3H),4′-[4H]thiopyran]-6-carboxamide] gave an IC50 (CMV polymerase) of 530 nM and a melting point of 147 to 149 °C.
Work on `O=C1CCC2(CC1)Cn1cc(C(=O)NCc3ccc(Cl)cc3)c(=O)c3cc(CN4CCOCC4)cc(c31)O2` [Example 54, N-[(4-Chlorophenyl)methyl]-9′-(4-morpholinylmethyl)-4,7′-dioxospiro[cyclohexane-1,2′(3′H)-[7H]pyrido[1,2,3-de][1,4]benzoxazine]-6′-carboxamide] yielded an IC50 (CMV polymerase) of 600 nM and a melting point of 249.5 to 252 °C.
For `O=C(NCc1ccc(Cl)cc1)c1cn2c3c(cc(CN4CCOCC4)cc3c1=O)OC1(CCC(O)CC1)C2` (stereo not drawn) [Example 55, N-[(4-Chlorophenyl)methyl]-4-hydroxy-9′-(4-morpholinylmethyl)-7′-oxospiro[cyclohexane-1,2′(3′H)-[7H]pyrido[1,2,3-de][1,4]benzoxazine]-6′-carboxamide], the IC50 (CMV polymerase) was 410 nM and the melting point was 229 to 234 °C.
Work on `Cn1ccnc1C1Cn2cc(C(=O)NCc3ccc(Cl)cc3)c(=O)c3cc(CN4CCOCC4)cc(c32)O1` (stereo not drawn) [Example 59, N-(4-Chlorobenzyl)-2-(1-methyl-1H-imidazol-2-yl)-9-(morpholin-4-ylmethyl)-7-oxo-2,3-dihydro-7H-[1,4]oxazino[2,3,4-ij]quinoline-6-carboxamide] yielded an IC50 (CMV polymerase) of 480 nM and a melting point of over 260 °C.
With `O=C(NCc1ccc(Cl)cc1)c1cn2c3c(cc(CN4CCOCC4)cc3c1=O)OC(c1ccco1)C2` (stereo not drawn) [Example 60, N-(4-Chlorobenzyl)-2-(2-furyl)-9-(morpholin-4-ylmethyl)-7-oxo-2,3-dihydro-7H-[1,4]oxazino[2,3,4-ij]quinoline-6-carboxamide] the IC50 (CMV polymerase) was 460 nM and the melting point was 220 to 222.5 °C.
With `COCOCc1cccc(C2Cn3cc(C(=O)NCc4ccc(Cl)cc4)c(=O)c4cc(CN5CCOCC5)cc(c43)O2)c1` (stereo not drawn) [Example 61, N-(4-Chlorobenzyl)-2-{3-[(methoxymethoxy)methyl]phenyl}-9-(morpholin-4-ylmethyl)-7-oxo-2,3-dihydro-7H-[1,4]oxazino[2,3,4-ij]quinoline-6-carboxamide] the IC50 (CMV polymerase) was 540 nM and the melting point was 186.5 to 189 °C.
`O=C(NCc1ccc(Cl)cc1)c1cn2c3c(cc(CN4CCOCC4)cc3c1=O)OC(c1cccc(CO)c1)C2` (stereo not drawn) [Example 62, N-(4-Chlorobenzyl)-2-[3-(hydroxymethyl)phenyl]-9-(morpholin-4-ylmethyl)-7-oxo-2,3-dihydro-7H-[1,4]oxazino[2,3,4-ij]quinoline-6-carboxamide] showed an IC50 (CMV polymerase) of 380 nM and a melting point of 229 to 233 °C.
For `O=C(NCc1ccc(Cl)cc1)c1cn2c3c(cc(CN4CCOCC4)cc3c1=O)OC(c1cccc(O)c1)C2` (stereo not drawn) [Example 63, N-(4-Chlorobenzyl)-2-(3-hydroxyphenyl)-9-(4-morpholinylmethyl)-7-oxo-2,3-dihydro-7H-[1,4]oxazino[2,3,4-ij]quinoline-6-carboxamide], the IC50 (CMV polymerase) was 290 nM and the melting point was 213 °C (dec.).
Work on `O=C(NCc1ccc(Cl)cc1)c1cn2c3c(cc(CN4CCOCC4)cc3c1=O)OC(c1ccc(O)cc1)C2` (stereo not drawn) [Example 65, N-(4-Chlorobenzyl)-2-(4-hydroxyphenyl)-9-(morpholin-4-ylmethyl)-7-oxo-2,3-dihydro-7H-[1,4]oxazino[2,3,4-ij]quinoline-6-carboxamide] yielded an IC50 (CMV polymerase) of 450 nM and a melting point of over 260 °C.
